Structures are written as SMILES. pIC50: −log10 of the molar value.

In one assay the target is T1, SGK1 protein kinase (Homo sapiens, UniProt O00141).
T1 sequence (O00141 1-431): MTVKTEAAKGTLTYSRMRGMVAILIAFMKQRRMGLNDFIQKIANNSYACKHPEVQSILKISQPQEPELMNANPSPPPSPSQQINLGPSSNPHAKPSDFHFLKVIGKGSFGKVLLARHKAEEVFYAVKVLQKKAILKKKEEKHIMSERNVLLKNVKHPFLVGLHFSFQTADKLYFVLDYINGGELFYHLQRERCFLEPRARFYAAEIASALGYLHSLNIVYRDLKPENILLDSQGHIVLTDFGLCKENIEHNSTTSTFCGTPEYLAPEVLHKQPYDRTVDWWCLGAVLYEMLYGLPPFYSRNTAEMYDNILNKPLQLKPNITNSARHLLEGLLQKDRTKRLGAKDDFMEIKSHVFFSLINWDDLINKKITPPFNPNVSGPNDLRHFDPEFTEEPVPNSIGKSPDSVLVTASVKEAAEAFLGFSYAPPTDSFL
Briefly: SGK1 protein kinase inhibition, filter binding method. In kind it is biochemical. The note with it: read-out: SGK1 enzyme inhibition IC50. The source says:
Further assays are known from the literature and could easily be carried out by the person skilled in the art (see, for example, Dhanabal et al., Cancer Res. 59:189-197; Xin et al., J. Biol. Chem. 274:9116-9121; Sheu et al., Anticancer Res. 18:4435-4441; Ausprunk et al., Dev. Biol. 38:237-248; Gimbrone et al., J. Natl. Cancer Inst. 52:413-427; Nicosia et al., In Vitro 18:538-549).
The inhibition of SGK1 protein kinase can be determined in the filter binding method.

The next assay relates to LCMV. The arrangement: species or system mice. The note with it: mouse, in vivo.
For a further assay, the system named is colon carcinomas. Description: Chemically induced (DMH/DSS) colon carcinomas in mice. Type of assay: in vivo. The note with it: DMH/DSS-induced tumour genesis; 4.46 mg/g of feed (approx. 600 mg/kg) for 20 days, one week after the treatment; vs placebo. As for the experimental part: To this end, colon tumours were induced chemically in the experimental animals (Wang J G, Wang D F, Lv B J, Si J M: A novel mouse model for colitis-associated colon carcinogenesis induced by 1,2-dimethylhydrazine and dextran sulfate sodium. World J Gastroenterol 2004; 10:2958-2962). Some of the experimental animals were subjected to three cycles of chemical tumour genesis at an age of 8 weeks. To this end, the animals were treated intraperitoneally with 20 mg/kg of 1,2-dimethylhydrazine (DMH; Sigma-Aldrich Corporation. St. Louis. Mo. USA). Starting one week later, distilled water containing 30 g/l of synthetic dextran sulfate sodium (DSS; molecular weight 5000; Wako Pure Chemical Industries Ltd. Japan) was administered to the animals three times for 7 days and distilled water was administered for a further 14 days (total duration 3×(1+2 weeks)=9 weeks in total). The remainder of the experimental animals (control animals) were instead supplied intraperitoneally by injection with 20 mg/kg of a 0.9% sodium chloride solution. All mice were anaesthetised with ether at the age of 22 weeks and subsequently killed.
One week after the treatment, either a placebo or the SGK1 inhibitor was administered for 20 days. The SGK1 inhibitor had been added to the feed in a mixing ratio of 4.46 mg/g of feed. This corresponds to an approximate dose of 600 mg/kg of body weight.

As a reminder, the pIC50 is −log10 of the IC50, conventionally taken in molar units. Regarding `CCc1c(C(=O)NNC(=O)C(O)c2cc(F)cc(F)c2)ccc(O)c1C` (racemic) [I, N′-[2-(3,5-Difluorophenyl)-2-hydroxyacetyl]-2-ethyl-4-hydroxy-3-methylbenzohydrazide], on SGK1 protein kinase, the negative logarithm of the IC50 (pIC50) was less than 6.52. In the assay with LCMV, the bilirubin concentration entry is listed as “significantly reduced” and the “concentration of alanine aminotransferase” value is given as “significantly reduced”. Further, the “growth of colon tumours” value in the assay on colon carcinomas is on record as “significantly inhibited”.
Turning to `CCc1c(C(=O)NNC(=O)[C@@H](O)c2cc(F)cc(F)c2)ccc(O)c1C` [Ia, N′-[(S)-2-(3,5-Difluorophenyl)-2-hydroxyacetyl]-2-ethyl-4-hydroxy-3-methylbenzohydrazide], the pIC50 at SGK1 protein kinase was less than 6.52.

The values are drawn from patent US8546613B2, “SGK1 inhibitors for the prophylaxis and/or therapy of viral diseases and/or carcinomas” (priority 2008, dated 2013).
